Measurements published in PubChem BioAssay (NCI).
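How tested: cells in 96-well plates exposed to compound for 48 hours at five concentrations. Here, GI50 denotes the concentration required for 50% inhibition of growth. At the TGI there is no net growth.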

What was measured:
Assay in all cases: NCI tumour cell line growth inhibition, 48 h
[1] = test system: NCI-H226 lung
[2] = test system: HL-60(TB) leukemia
[3] = test system: UACC-62 melanoma
[4] = test system: UACC-257 melanoma
[5] = test system: LOX IMVI melanoma
[6] = test system: SR leukemia
[7] = test system: MALME-3M melanoma
[8] = test system: OVCAR-4 ovarian
[9] = test system: MCF7 breast
[10] = test system: SK-MEL-5 melanoma

Compound | TGI [1] [µM] | TGI [2] [µM] | TGI [3] [µM] | TGI [4] [µM] | TGI [5] [µM] | TGI [6] [µM] | TGI [7] [µM] | TGI [8] [µM] | TGI [9] [µM] | TGI [10] [µM] | GI50 [1] [µM] | GI50 [3] [µM] | GI50 [9] [µM] | GI50 [4] [µM] | GI50 [6] [µM] | GI50 [2] [µM] | GI50 [5] [µM] | GI50 [10] [µM] | GI50 [7] [µM] | GI50 [8] [µM]
Cc1c(C(=O)/C=C/c2ccc3c(c2)OCO3)[n+](=O)c2ccccc2n1[O-] | 60.9 | > 100 | 75.2 | > 100 | 66.3 | > 100 | > 100 | > 100 | – | – | – | – | – | – | – | – | – | – | – | –
COc1cc([N+](=O)[O-])c(S(=O)(=O)O)cc1-[n+]1nc(C(=O)Nc2ccccc2)nn1-c1ccc([N+](=O)[O-])c(S(=O)(=O)[O-])c1 | > 100 | > 100 | > 100 | – | – | > 100 | > 100 | > 100 | > 100 | > 100 | – | – | – | – | – | – | – | – | – | –
O=C(/C=N/O)Nc1cccc(Cl)c1I | > 100 | > 100 | > 100 | > 100 | > 100 | > 100 | > 100 | > 100 | – | > 100 | – | – | – | – | – | – | – | – | – | –
CC[C@]1(O)C[C@@H]2CN(CCc3c([nH]c4ccccc34)[C@@](C(=O)OC)(c3cc4c(cc3OC)N(C)[C@H]3[C@@](O)(C(=O)OC)[C@H](OC(=O)CCCBr)[C@]5(CC)C=CCN6CC[C@]43[C@@H]65)C2)C1 | 99.7 | – | > 100 | > 100 | – | > 100 | – | 33.5 | > 100 | – | 5.87 | < 0.01 | < 0.01 | 3.27 | < 0.01 | – | – | – | – | –
COc1cc2ccc(CC(=O)O)cc2cc1OC | > 100 | > 100 | > 100 | > 100 | – | > 100 | > 100 | > 100 | – | > 100 | – | – | – | – | – | – | – | – | – | –
Cc1ccccc1NC(=O)C(=O)CC(=O)c1sc(-n2nc(-c3ccccc3)cc2-c2ccccc2)nc1C | > 100 | > 100 | > 100 | > 100 | > 100 | > 100 | > 100 | > 100 | – | – | – | – | – | – | – | – | – | – | – | –
C#CCN(CCCOc1ccc(Cl)cc1Cl)CCCSC(=O)CCCCCN1/C(=C\C=C2/CCCC(/C=C/C3=[N+](CCCCCC(=O)[O-])c4ccccc4C3(C)C)=C2Cl)C(C)(C)c2ccccc21 | 4.11 | 4.79 | 3.14 | 4.03 | 2.83 | – | 2.85 | 6.72 | 3.53 | 3.02 | 1.72 | 1.15 | 1.24 | 1.8 | – | 1.62 | 1.46 | 1.62 | 1.21 | 2.02
CN(C)CCC(/C=C/c1ccccc1)=N\Nc1c(F)c(F)c(F)c(F)c1F | – | 37.8 | > 100 | > 100 | > 100 | > 100 | > 100 | > 100 | – | 28.8 | – | – | – | – | – | – | – | – | – | –
COc1ccc2c(c1)CCC1C2CCC2(C)C(NC(=O)CCCCC3CCSS3)CCC12 (configuration not stated) | > 100 | > 100 | > 100 | > 100 | > 100 | – | > 100 | > 100 | > 100 | 20.3 | > 100 | 15 | 39.7 | 31.8 | – | 3.75 | 32.5 | 3.26 | 92.2 | 23
COC(=O)C1C(=O)NC2(C)CC1c1ccccc1O2 (configuration not stated) | > 100 | > 100 | > 100 | > 100 | > 100 | > 100 | > 100 | > 100 | – | > 100 | – | – | – | – | – | – | – | – | – | –
Cc1ncc([N+](=O)[O-])n1CCOc1ccc(C(=O)/C=C/c2ccc(C(F)(F)F)cc2)cc1 | 20.4 | 11.4 | 17.6 | 16.5 | 5.6 | 5.5 | – | 14.6 | 4.01 | 20.3 | 4.25 | 4.73 | 1.7 | 3.6 | 1.97 | 2.91 | 2.21 | 6.1 | – | 2.99
CCOC(=O)c1cnc2c(ccc3ncccc32)c1OCC | > 100 | > 100 | > 100 | > 100 | > 100 | > 100 | > 100 | > 100 | – | > 100 | – | – | – | – | – | – | – | – | – | –
Cc1cc(N(CCC#N)CCC#N)ccc1/C=C1N=C(/C=C\c2ccccc2)N(c2ccc(C(=O)O)cc2)C\1=O | > 100 | > 100 | > 100 | > 100 | > 100 | > 100 | > 100 | > 100 | – | > 100 | – | – | – | – | – | – | – | – | – | –
COc1cc2c(cc1OC)C(Sc1ccc(Cl)cc1)c1c(nc(N)c(C#N)c1N)O2 (configuration not stated) | – | 3.73 | 2.66 | 2.96 | 2.35 | 1.66 | 3.1 | 2.96 | 2.91 | 2.71 | – | 1.27 | 0.564 | 1.58 | 0.329 | 0.578 | 1.09 | 1.39 | 1.49 | 1.53
NC(=O)N1N=C2c3ccccc3OC[C@H]2[C@@H]1c1ccccc1 | 74.7 | 61.7 | 19.9 | > 100 | > 100 | 56 | > 100 | > 100 | – | – | – | – | – | – | – | – | – | – | – | –
COC(=O)c1sc(=S)c2sc(C(=O)OC)c(C(=O)OC)c2c1C(=O)OC | > 100 | 62.3 | > 100 | 92 | > 100 | 48.2 | – | > 100 | > 100 | > 100 | 42 | 36 | 40 | 26.8 | 23.3 | 21.9 | 46.3 | 39.1 | – | 82.2
Nc1nc2c([nH]1)c1[nH]c3ccccc3c1c1[nH]c3ccccc3c21 | 45.5 | 38.1 | 30 | 33.4 | 32.5 | – | 4.45 | 35.3 | 21.1 | 27 | 19.8 | 15.9 | 4.47 | 18.5 | – | 18.4 | 16 | 14 | 1.86 | 15.4
CC1(C)O[C@@H](CCl)C[C@@H](C#N)O1 | > 100 | > 100 | > 100 | > 100 | > 100 | > 100 | > 100 | > 100 | – | > 100 | – | – | – | – | – | – | – | – | – | –
